The values below come from patent US6787562B2, “Substituted aryl and heteroaryl compounds as E-type prostaglandin antagonists” (Zeneca Ltd., priority 1995, dated 2004).

One data set deals with guinea pig ileum. The settings on record: cited from earlier work.
Another data set concerns dog fundus. As to conditions: cited from earlier work.

One may read the melting point as the temperature of the solid-liquid transition. `CC(Oc1ccc(C(=O)O)cc1)c1ccccc1OCc1ccccc1` (centres unmarked) [Example 22, 4-(1-(2-(Benzyloxy)phenyl)ethoxy)benzoic Acid] registered a melting point of 108 °C.

Turning to `CCN(Cc1ccc(C(=O)O)cc1)c1cc(Br)ccc1OCc1ccccc1` [Example 38, 4-[N-(2-Benzyloxy-5-bromophenyl)-N-ethylaminomethyl]benzoic Acid], the melting point is 94.5 to 95 °C.

`CCN(Cc1ccccc1Oc1ccccc1)c1ccc(C(=O)O)nn1` [Example 12, 6-(N-Ethyl-N-(2-phenoxybenzyl)amino)pyridazine-3-carboxylic Acid] returned a melting point of 70 to 75 °C.

The compound `O=C(O)c1ccc(SCc2ccccc2OCc2ccccc2)cc1` [Example 18, 4-[2-Benzyloxybenzylthio]benzoic Acid] registered a melting point of 144 °C.

The compound `O=C(O)c1ccc(NCc2cc(Br)ccc2CCc2ccccc2)cc1` [Example 4, 4-[N-(5-Bromo-2-(phenethyl)benzyl)amino]Benzoic Acid] came in with a melting point of 126 to 127 °C.

The compound `O=C(O)c1ccc(OCc2ccccc2OCc2ccccc2)cc1` [Example 21, 4-(2-(Benzyloxy)benzyloxy)benzoic Acid] gave a melting point of 176.8 to 178.8 °C.

As to `O=C(O)c1ccc(OCc2ccccc2CCc2ccccc2)cc1` [Example 23, 4-(2-(phenethyl)benzyloxy)benzoic Acid], the melting point fell in the range of 178 to 180 °C.

Compound `O=C(O)c1ccc(CNc2cc(Br)ccc2OCc2ccccc2)cc1` [Example 37, 4-[N-(2-Benzyloxy-5-bromophenyl)aminomethyl]benzoic Acid] gave a melting point of 216 to 217 °C.

As to `O=C(O)c1ccc(CCc2ccccc2CCc2ccccc2)cc1O` [Example 33, 2-Hydroxy-4-[(2-phenethyl)phenethyl]benzoic Acid], the melting point lay in the range of 134 to 137 °C.

Regarding `O=C(Nc1cccnc1)c1ccc(SCc2ccccc2OCc2ccccc2)cc1` [Example 19, N-(3-Pyridyl)-4-[2-benzyloxybenzylthio]benzamide], the melting point is 108 °C.

Regarding `O=C(O)c1ccc(CCCc2ccccc2Sc2ccccc2)cc1` [Example 32, 4-[3-(2-(phenylthio)phenyl)propyl]benzoic Acid], the melting point was 90 to 91 °C.

In the case of `CC(=O)NNC(=O)N1Cc2ccccc2Oc2ccc(Cl)cc21` [SC-19220], the “effect of PGE2 on tissue blocked” value in the data set with guinea pig ileum and with dog fundus was “blocks the effect of PGE2” in each case.

`CC(c1ccc(C(=O)O)cc1)N(C)c1ccc(Br)cc1OCc1ccccc1` (centres unmarked) [Example 40, 4-[1-(N-(2-Benzyloxy-4-bromophenyl)-N-methylamino)ethyl]benzoic Acid] displayed a melting point of 181.5 to 182 °C.

In the case of `O=C(O)c1ccc(CCCc2ccccc2Cc2ccccc2)cc1` [Example 34, 4-[3-(2-benzylphenyl)propyl]benzoic Acid], the melting point was in the range of 135 to 136 °C.

`CCN(Cc1ccccc1Oc1ccccc1)c1ccc(C(=O)O)cn1` [Example 13, 2-(N-ethyl-N-(2-phenoxybenzyl)amino)pyridine-5-carboxylic Acid] came in with a melting point of 170.5 to 172 °C.

Turning to `CC(Nc1cc(Br)ccc1OCc1ccccc1)c1ccc(C(=O)O)cc1` (centres unmarked) [Example 39, 4-[1-(N-(2-Benzyloxy-5-bromophenyl)-amino)ethyl]benzoic Acid], the melting point lay in the range of 186.5 to 187 °C.
